Patent publication EP0494754A1, “3-hydroxypyridin-4-one derivatives as pharmaceutical compositions” (BRITISH TECHNOLOGY GROUP LTD, priority 1991, dated 1992)
Read-outs that look alike come from different tables or passages of the source.

Key:
Assay type in all cases: cell-based
P. falciparum [1] = experiment: Inhibition of growth of P. falciparum in red cell culture (tritiated hypoxanthine uptake, continuous exposure to chelator); conditions: for minimal effective concentration: Plasmodium falciparum, further study, method not detailed, read-out: dosage level at which marked growth inhibition was observed; for level of activity against red blood cells parasitized by P. falciparum (relative ranking): comparison between compounds, no figures; for growth inhibition of P. falciparum: 50 µmol/l iron binding concentration, after 30 hours, Figure 2; for percentage inhibition of growth after 30 hours as compared with the controls: iron binding concentration of 100 µmol of iron per litre, Figure 1
Procedure: (A) An uncloned strain of P. falciparum, ITO4, was grown on blood group O red cells using a modification of the method described by Trager et al in Science, 1976, […], 673. An atmopshere consisting of 1% oxygen, 3% carbon dioxide and 96% nitrogen was maintained throughout the experiments. Red cells were suspended at a hematocrit of 3% in RPMI 1640 that had been supplemented with 10% v/v human serum, 2 g/l glucose, 4 mM NaOH, 25 µg/ml gentamicin, 1.9 mM glutamine and 25 mM HEPES to form complete medium. For experimental purposes the red cells were then further diluted with the same medium to a final hematocrit of 1.5%. Synchronised parasite cultures were obtained using a combination of sorbitol lysis and gelatin flotation, as described respectively by Jensen et al in Am. J. Trop. Med. Hyg., 1978, 27, 1274 and Lambros et al in J. Parasitol., 1979, 65, 418, thus ensuring that only young ring forms remained. The starting parasitemia in each experiment was between 0.1 and 0.5%.
A red cell suspension containing only recently synchronised ring parasites was treated with 0.2 µCi of tritiated hypoxanthine per 100 µl of red cell suspension and one of ten chelating agents as identified in the Table was added in complete medium to the suspension in an amount such as to produce an iron binding concentration of 100 µmol of iron per litre (all of the chelators combine with iron in a ratio of 3 moles of chelator:1 mole of iron apart from the chelator number 10, desferrioxamine, which combines in a 1:1 molar ratio). The test cultures were immediately dispersed in 200 µl aliquots into 96 well microculture plates. Each chelator was tested in three or more wells and the whole experiment was carried out at least twice for each chelator. Control cultures were used in each experiment which contained no iron chelator.
The growth of the P. falciparum parasites was assessed both by light microscopy examination of thin films that had been stained with Giemsa and through measurement of tritiated hypoxanthine uptake, the cell cultures being harvested onto glass fibre filters and radioactivity, in terms of beta emission from each well, being measured in a flat bed liquid scintillation counter as described by Potter et al in Phys. Med. Biol., 1986, 31(4), 361.
The chelators tested consisted of 1-(2′-carboxyethyl)-3-hydroxy-2-methylpyridin-4-one (R₁ = CH₂CH₂CO₂H, R₂ = CH₃, R₃ = R₄ = H; compound 1) and, for the purposes of comparison with this chelator, nine other chelators not of formula (I) as defined hereinbefore, of which compounds 2 to 9 are 3-hydroxypyridin-4-ones and compound 10 is desferrioxamine. […] These findings were supported by a morphological examination of red cells sampled from the cultures. […] (B) The effect of using different dosage levels than the 100 µmol/l level used in (A) was studied employing the same procedure but using four dosage levels of 10 µmol/l, 25 µmol/l, 50 µmol/l and […]. Only the eight chelators which produced an inhibitory effect at 100 µmol/l were studied and controls containing no iron chelator were again employed.

P. falciparum [2] = experiment: 6 hour pulse exposure at different stages of the first parasite cycle, growth by tritiated hypoxanthine uptake; parameters: dose or concentration left out as unconfirmed; conditions: Plasmodium falciparum
Procedure: In the case of 2-carboxymethyl-3-hydroxy-1-methylpyridin-4-one, 1-(2-carboxyethyl)-2-ethyl-3-hydroxypyridin-4-one and 1-(3-carboxypropyl)-2-methyl-3-hydroxypyridin-4-one a dosage level of 0.5 µmol/l was required to produce a similar level of growth inhibition and in the case of 3-hydroxy-2-methyl-1-(2-sulphoethyl)pyridin-4-one a dosage level of 1 µmol/l was required. (C) A culture of ring parasites obtained as in (A) was dispensed in 3 ml volumes into separate flasks. Different cultures were exposed during a 6 hour period to the compound 1 in a 100 µmol/l iron binding concentration at different stages during the first parasite cycle and controls containing no chelator were again employed. At the end of each 6 hour pulse, all cultures were washed twice in RPMI 1640 and the pellet was resuspended in complete medium. At 40 hours, when cells from cultures that had not been exposed at any time to a chelator contained segmenting schizonts, tritiated hypoxanthine was added to the incubation medium of all the cultures. Growth of the parasites was assessed after further periods of 42 hours (during second cycle), 65 hours (during third cycle) and 84 hours (during fourth cycle). Each pulse of compound 1 was duplicated in separate flasks. Morphologically, synchrony of the cultures was clearly lost during the third parasite cycle.
Furthermore, no morphological differences were detected between parasites that were sampled from these cultures and untreated parasites. On the other hand, incubation with compound 1 during the schizont stage (24-30 hours) of parasite development did produce an inhibitory effect on the growth of P. falciparum resulting in 38% and 30% growth inhibition during the second and third cycles. Morphologically these cultures contained a mixed population of degenerate forms and young ring parasites with evidence of red cell reinvasion. Thus it will be seen that the effect of compound 1 is maximised during the early schizont stage of the development of the parasite. However, the employment of 6 hour pulses in order to compare the effects of the compound at different stages, as opposed to the continuous treatment employed in (A), did lead to a lower level of anti-malarial effect.

MEL cells, clone 585 = experiment: Inhibition of growth of murine erythroleukaemia (MEL) cells, cell counting; conditions: 50 µmol/l iron binding concentration; after 30 hours; Figure 2
Procedure: MEL cells, clone 585, were grown in suspension culture at 37°C in RPMI 1640 that had been supplemented with 13% v/v foetal calf serum, 25 µl/ml gentamicin, 1.9 mM glutamine and 2% diaminopurine as described by Peto et al in Br. J. Haematol., 1983, 54, 623. The cultures were maintained in an atmosphere containing 5% carbon dioxide and passaged every 3-4 days at a seeding concentration of 1-2 x 10⁴/ml to ensure that the cells were continually in logarithmic growth phase. Under these conditions, the doubling time for cell growth was 30-36 hours.
10 ml volumes of cell suspension were incubated in 50 ml flasks with each of the ten chelators identified in the Table at a 50 µmol/l iron binding concentration, controls being employed which contained no chelator. 400 µl aliquots were removed in duplicate for growth assessment at 24 hour intervals over the next four days. The experiment was repeated on three separate occasions, the initial cell concentration in each case being 2-3 x 10⁴ cells/ml. Cell growth was assessed both by examination of cultures using light microscopy and by cell counting. At various times throughout each experiment, 400 µl culture was added to 19.6 ml Isoton and the number of particles counted using a Coulter Counter ZN set at threshold 20 and attenuation 0.4
The effect of the different chelators on growth of the MEL cells after 30 hours was compared with the effect produced after a similar time by the same chelators at a 50 µmol/l iron binding concentration using the procedure described in Example 2(A). The results are illustrated in Figure 2. It will be seen that the compounds 2, 3, 4, 5, 6, 9 and 10 inhibited growth of MEL cells and of P. falciparum, the minimum growth inhibition being 80% and 70% respectively. […] When these two groups of chelators were examined together a close linear correlation (r = 0.978) was found between the degree of growth inhibition produced in both types of cell for each chelator studied. The compound 1 was distinguished from all of the other chelators in being the only one to have no significant inhibitory effect on the growth of MEL cells (<10%) whilst at the same time producing a substantial inhibitory effect on the growth of P. falciparum (>75%).

SMILES | minimal effective concentration (P. falciparum [1]) [µM] | growth inhibition of P. falciparum (P. falciparum [1]) | percentage inhibition of growth after 30 hours as compared with the controls (P. falciparum [1]) | growth inhibition of MEL cells (MEL cells, clone 585) | also measured
Cc1c(O)c(=O)ccn1CCS(=O)(=O)O [3-hydroxy-2-methyl-1-(2-sulphoethyl)-pyridin-4-one] | 1 |  |  |  | 
Cn1ccc(=O)c(O)c1CC(=O)O [(5), 2-carboxymethyl-3-hydroxy-1-methylpyridin-4-one] | 0.5 |  |  |  | 
CCc1c(O)c(=O)ccn1CCC(=O)O [(12), 1-(2-carboxyethyl)-2-ethyl-3-hydroxypyridin-4-one] | 0.5 |  |  |  | level of activity against red blood cells parasitized by P. falciparum (relative ranking) (P. falciparum [1]): higher level of activity than compound (9)
Cc1c(O)c(=O)ccn1CCCC(=O)O [(16), 1-(3-carboxypropyl)-2-methyl-3-hydroxypyridin-4-one] | 0.5 |  |  |  | level of activity against red blood cells parasitized by P. falciparum (relative ranking) (P. falciparum [1]): higher level of activity than compound (9)
Cc1c(O)c(=O)ccn1CCC(=O)O [compound 1, 1-(2-carboxyethyl)-3-hydroxy-2-methylpyridin-4-one] | 0.1 | > 75% | more than 65% | < 10% | level of activity against red blood cells parasitized by P. falciparum (relative ranking) (P. falciparum [1]): higher level of activity against red blood cells parasitized by P. falciparum than compounds (12) and (16); inhibition (P. falciparum [2]; 6 hour pulse at 6-12 hours of first cycle, read-out: growth inhibition during the third cycle): 0%; inhibition (P. falciparum [2]; 6 hour pulse at 12-18 hours of first cycle, read-out: growth inhibition during the second cycle): 11.4%; inhibition (P. falciparum [2]; 6 hour pulse at 12-18 hours of first cycle, read-out: growth inhibition during the third cycle): 12%; inhibition (P. falciparum [2]; 6 hour pulse at 18-24 hours of first cycle, read-out: growth inhibition during the second cycle): 0%; inhibition (P. falciparum [2]; 6 hour pulse at 18-24 hours of first cycle, read-out: growth inhibition during the third cycle): 0%; inhibition (P. falciparum [2]; 6 hour pulse during the schizont stage (24-30 hours), read-out: growth inhibition during the second cycle): 38%; inhibition (P. falciparum [2]; 6 hour pulse during the schizont stage (24-30 hours), read-out: growth inhibition during the third cycle): 30%
Cc1c(O)c(=O)ccn1C [compound 2, 3-hydroxy-1,2-dimethylpyridin-4-one] |  | ≥ 70% | more than 65% | ≥ 80% | 
CC1=NC=CC(=O)C1O (stereo not shown) [compound 3, 3-hydroxy-2-methylpyridin-4-one] |  | ≥ 70% | more than 65% | ≥ 80% | 
Cc1c(O)c(=O)ccn1CCO [compound 4, 3-hydroxy-1-(2-hydroxyethyl)-2-methylpyridin-4-one] |  | ≥ 70% | more than 65% | ≥ 80% | 
Cc1c(O)c(=O)ccn1CCN.Cl [compound 5, 1-(2-aminoethyl)-3-hydroxy-2-methylpyridin-4-one hydrochloride] |  | ≥ 70% | more than 65% | ≥ 80% | 
COCCn1ccc(=O)c(O)c1C [compound 6, 3-hydroxy-1-(2-methoxyethyl)-2-methylpyridin-4-one] |  | ≥ 70% | more than 65% | ≥ 80% | 
Cc1c(O)c(=O)ccn1CCCCCC(=O)O [compound 7, 1-(5-carboxypentyl)-3-hydroxy-2-methylpyridin-4-one] |  | little inhibitory effect | less than 12% | little inhibitory effect | 
Cc1c(O)c(=O)ccn1CCCCCC(=O)NCCC(=O)O [compound 8, 1-(5-(N-(2-carboxyethyl)-carbamoyl)pentyl)-3-hydroxy-2-methylpyridin-4-one] |  | little inhibitory effect | less than 12% | little inhibitory effect | 
CCc1c(O)c(=O)ccn1C [compound 9, 2-ethyl-3-hydroxy-1-methyl-pyridin-4-one] |  | ≥ 70% | more than 65% | ≥ 80% | 
Cc1c(O)c(=O)ccn1CC(=O)O [compound (9), 1-carboxymethyl-3-hydroxy-2-methylpyridin-4-one] |  |  |  |  | level of activity against red blood cells parasitized by P. falciparum (relative ranking) (P. falciparum [1]): somewhat greater than that of the compound 3-hydroxy-2-methyl-1-(2-sulphoethyl)pyridin-4-one
